Assay results as given in patent publication US10973801B2, “Capsid assembly modulator dosing regimen” (Janssen Sciences Ireland Unlimited Company, priority 2018, dated 2021).
Where “and” joins values, the source holds several entries; their conditions need not be identical. Identical values can stand only once. Entries after “also recorded” stand apart in the source; their conditions may differ. Like-named read-outs stand apart in the source and are kept apart here. Marks after values point to notes of the source that are not given here.

Experiments:
[1] = Adverse events over 28-day treatment in treatment naïve chronic hepatitis B patients; type: in vivo, human; details: for Amylase Increased (most common AEs) / At least one AE (on-treatment, 28 days) / Headache (most common AEs) / Worst Grade 1 AEs / Worst Grade 2 AEs / Worst Grade 3 AEs: n = 8
From the text: In part 2 of this study (FIG. 1, sessions 8-9), the objective was to evaluate the safety, PK, and antiviral activity of Compound A in treatment naïve, chronic hepatitis B patients over a 28-day treatment period. The patient criteria were: • HBeAg-positive or negative • Plasma HBV DNA>2.0 log 10 IU/mL • ALT/AST<2.5×ULN • METAVIR stage<F3. […] Although no patients had Grade 3 or 4 AEs on treatment, one patient had Grade 1 & 2 ALT and Grade 1 AST elevations on treatment that rose to Grade 3 & 4 ALT and Grade 3 AST elevations in follow up.

[2] = system: HBV RNA; assay: HBV RNA in treatment naïve chronic hepatitis B patients; type: in vivo, hepatitis B virus; details: N 8
Procedure: In part 2 of this study (FIG. 1, sessions 8-9), the objective was to evaluate the safety, PK, and antiviral activity of Compound A in treatment naïve, chronic hepatitis B patients over a 28-day treatment period. The patient criteria were: • HBeAg-positive or negative • Plasma HBV DNA>2.0 log 10 IU/mL • ALT/AST<2.5×ULN • METAVIR stage<F3. 1.1 Patient Baseline Characteristics HBV DNA was assessed for each patient weekly during this study (see FIG. 3). A mean reduction in plasma HBV DNA levels of 2.16 (±0.49 SD) log10 IU/mL (25 mg Compound A) and 2.89 (±0.48 SD) log10 IU/mL (75 mg Compound A) from baseline was observed after 28 days. Three patients dosed with 75 mg QD achieved HBV DNA below the level of quantification of the HBV DNA assay while none in the 25 mg Compound A group achieved this. A more pronounced and consistent decline in HBV DNA was observed across patients in the 75 mg group compared with the 25 mg group.

[3] = Safety and tolerability of single ascending doses in healthy Japanese volunteers; type: in vivo, human
Procedure: A double-blind, placebo-controlled study was done to assess the safety, tolerability, and pharmacokinetics (PK) of Compound A. Thirty-two healthy adult Japanese volunteers were randomized into four cohorts. The volunteers were randomized 3:1 to receive a single dose of Compound A or placebo in a fasted state (see FIG. 4). The safety, tolerability and PK plasma profiles of Compound A were assessed after each dose. Full plasma PK profiles were determined up to 28 days after each single dose of Compound A. Urinary elimination was assessed in Cohort C (see FIG. 4) for 7 day. […] The treatment emergent adverse events (TEAEs) reported reported were hiccups, upper respiratory tract infection, nasal congestion, and cough. […] No significant laboratory abnormalities were discovered, most laboratory abnormalities were Grade 1.

[4] = Pharmacokinetics of single ascending doses in healthy Japanese volunteers; type: in vivo, human; details: for Mean CL/F (SD) / Cmax / Vd/F / half-life / Tmax: fasted (n = 6); for Cmax / Vd/F / half-life / Tmax: human, plasma, oral; for Cmax: read-out: Mean Cmax (SD); for Vd/F: read-out: Mean Vd/F (SD); for half-life: read-out: Mean t1/2 term (SD) (converted); for Tmax: read-out: Median tmax
Procedure: A double-blind, placebo-controlled study was done to assess the safety, tolerability, and pharmacokinetics (PK) of Compound A. Thirty-two healthy adult Japanese volunteers were randomized into four cohorts. The volunteers were randomized 3:1 to receive a single dose of Compound A or placebo in a fasted state (see FIG. 4). The safety, tolerability and PK plasma profiles of Compound A were assessed after each dose. Full plasma PK profiles were determined up to 28 days after each single dose of Compound A. Urinary elimination was assessed in Cohort C (see FIG. 4) for 7 day.
The PKs were dose-dependent in all four treatment cohorts. […] The inter-subject variability, expressed as % CV, was low to moderate and similar across dose levels.

Mean CL/F (SD) ([4]; 25 mg single dose): 1.03 (0.33) L/h
Mean CL/F (SD) ([4]; 160 mg single dose): 0.929 (0.24) L/h
Mean CL/F (SD) ([4]; 300 mg single dose): 0.852 (0.17) L/h
Mean CL/F (SD) ([4]; 500 mg single dose): 0.919 (0.23) L/h
dose dependence of PKs ([4]; all four treatment cohorts): dose-dependent
Cmax ([4]; 25 mg single dose): 375 ng/mL
Vd/F ([4]; 25 mg single dose): 132 L
half-life ([4]; 25 mg single dose): 106 h
Tmax ([4]; 25 mg single dose): 1.75 h
Cmax ([4]; 160 mg single dose): 296 ng/mL
Vd/F ([4]; 160 mg single dose): 126 L
half-life ([4]; 160 mg single dose): 100 h
Tmax ([4]; 160 mg single dose): 3 h
Cmax ([4]; 300 mg single dose): 308 ng/mL
Vd/F ([4]; 300 mg single dose): 1140 L
half-life ([4]; 300 mg single dose): 116 h
Tmax ([4]; 300 mg single dose): 3 h
Cmax ([4]; 500 mg single dose): 328 ng/mL
Vd/F ([4]; 500 mg single dose): 119 L
half-life ([4]; 500 mg single dose): 95.6 h
Tmax ([4]; 500 mg single dose): 1.75 h
administered dose excreted via the kidneys ([4]; single dose 300 mg, Cohort C): 18%
unchanged drug excreted in urine ([4]; single dose 300 mg, Cohort C, 7 day): 53.9 mg
Compound: C[C@H](NS(=O)(=O)c1cc(C(=O)Nc2ccc(F)c(C#N)c2)n(C)c1)C(F)(F)F [Compound A]
Amylase Increased (most common AEs) ([1]; 25 mg (100 mg Day 1)): 2 (25)** n (%)
At least one AE (on-treatment, 28 days) ([1]; 25 mg (100 mg Day 1)): 5 n (%) and 5 (63) n (%)
Headache (most common AEs) ([1]; 25 mg (100 mg Day 1)): 2 (25) n (%)
Worst Grade 1 AEs ([1]; 25 mg (100 mg Day 1)): 3 (38) n (%)
Worst Grade 2 AEs ([1]; 25 mg (100 mg Day 1)): 1 (13) n (%)
Worst Grade 3 AEs ([1]; 25 mg (100 mg Day 1)): 1 (13) n (%)
ECG changes and vital sign abnormalities ([1]; 25 mg and 75 mg, 28 days): no patients showed clinically significant ECG changes or persistent/worsening vital sign abnormalities
serious AEs, discontinuations, dose-limiting toxicities ([1]; 25 mg and 75 mg, 28 days): no serious adverse events (SAES) or adverse events (AEs) of clinical concern and no treatment discontinuations; also recorded: no serious AEs, no discontinuations due to AEs, and no dose-limiting toxicities
treatment-emergent Grade 3 or 4 laboratory abnormalities ([1]; 25 mg and 75 mg, 28 days): No treatment-emergent Grade 3 or 4 laboratory abnormalities were reported, with the exception of the Grade 3 amylase increase
Amylase Increased (most common AEs) ([1]; 75 mg): 0 n (%)
At least one AE (on-treatment, 28 days) ([1]; 75 mg): 4 n (%) and 4 (50) n (%)
Headache (most common AEs) ([1]; 75 mg): 0 n (%)
Worst Grade 1 AEs ([1]; 75 mg): 2 (25) n (%)
Worst Grade 2 AEs ([1]; 75 mg): 1 (13) n (%)
Worst Grade 3 AEs ([1]; 75 mg): 0 (0)* n (%)
patients who experienced at least one AE during treatment ([1]; both Compound A arms pooled (9/16)): 56%
HBV RNA Day 29 Mean Change from Baseline ([2]; 25 mg QD): −2.30 log10 cp/mL
HBV RNA Day 29 Not detected (number of patients) ([2]; 25 mg QD): 3
HBV RNA Day 29 Mean Change from Baseline ([2]; 75 mg QD): −1.85 log10 cp/mL
HBV RNA Day 29 Not detected (number of patients) ([2]; 75 mg QD): 6
Deaths ([3]; 25 mg single dose (n = 6)): 0
Grade 2 AEs: Bilirobin increased ([3]; 25 mg single dose (n = 6)): 0
Grade 2 AEs: Cholesterol increased ([3]; 25 mg single dose (n = 6)): 0
Grade 2 AEs: Fibrinogen decreased ([3]; 25 mg single dose (n = 6)): 0
Grade 2 AEs: Leukocytes decreased ([3]; 25 mg single dose (n = 6)): 0
Grade 2 AEs: Triglycerides increased ([3]; 25 mg single dose (n = 6)): 1
SAEs ([3]; 25 mg single dose (n = 6)): 0
Treatment-emergent AEs Related to Compound A ([3]; 25 mg single dose (n = 6)): 0
Volunteers with ≥0.1 AE (treatment-emergent AEs) ([3]; 25 mg single dose (n = 6)): 0
Deaths ([3]; 150 mg single dose (n = 6)): 0
Grade 2 AEs: Bilirobin increased ([3]; 150 mg single dose (n = 6)): 0
Grade 2 AEs: Cholesterol increased ([3]; 150 mg single dose (n = 6)): 0
Grade 2 AEs: Fibrinogen decreased ([3]; 150 mg single dose (n = 6)): 0
Grade 2 AEs: Leukocytes decreased ([3]; 150 mg single dose (n = 6)): 0
Grade 2 AEs: Triglycerides increased ([3]; 150 mg single dose (n = 6)): 0
SAEs ([3]; 150 mg single dose (n = 6)): 0
Treatment-emergent AEs Related to Compound A ([3]; 150 mg single dose (n = 6)): 0
Volunteers with ≥0.1 AE (treatment-emergent AEs) ([3]; 150 mg single dose (n = 6)): 2
Deaths ([3]; 300 mg single dose (n = 6)): 0
Grade 2 AEs: Bilirobin increased ([3]; 300 mg single dose (n = 6)): 0
Grade 2 AEs: Cholesterol increased ([3]; 300 mg single dose (n = 6)): 0
Grade 2 AEs: Fibrinogen decreased ([3]; 300 mg single dose (n = 6)): 0
Grade 2 AEs: Leukocytes decreased ([3]; 300 mg single dose (n = 6)): 0
Grade 2 AEs: Triglycerides increased ([3]; 300 mg single dose (n = 6)): 1
SAEs ([3]; 300 mg single dose (n = 6)): 0
Treatment-emergent AEs Related to Compound A ([3]; 300 mg single dose (n = 6)): 0
Volunteers with ≥0.1 AE (treatment-emergent AEs) ([3]; 300 mg single dose (n = 6)): 0
Deaths ([3]; 500 mg single dose (n = 6)): 0
Grade 2 AEs: Bilirobin increased ([3]; 500 mg single dose (n = 6)): 0
Grade 2 AEs: Cholesterol increased ([3]; 500 mg single dose (n = 6)): 0
Grade 2 AEs: Fibrinogen decreased ([3]; 500 mg single dose (n = 6)): 0
Grade 2 AEs: Leukocytes decreased ([3]; 500 mg single dose (n = 6)): 0
Grade 2 AEs: Triglycerides increased ([3]; 500 mg single dose (n = 6)): 0
SAEs ([3]; 500 mg single dose (n = 6)): 0
Treatment-emergent AEs Related to Compound A ([3]; 500 mg single dose (n = 6)): 0
Volunteers with ≥0.1 AE (treatment-emergent AEs) ([3]; 500 mg single dose (n = 6)): 2
Deaths ([3]; Total (n = 32)): 0
Grade 2 AEs: Bilirobin increased ([3]; Total (n = 32)): 0
Grade 2 AEs: Cholesterol increased ([3]; Total (n = 32)): 0
Grade 2 AEs: Fibrinogen decreased ([3]; Total (n = 32)): 0
Grade 2 AEs: Leukocytes decreased ([3]; Total (n = 32)): 0
Grade 2 AEs: Triglycerides increased ([3]; Total (n = 32)): 2
SAEs ([3]; Total (n = 32)): 0
Treatment-emergent AEs Related to Compound A ([3]; Total (n = 32)): 0
Volunteers with ≥0.1 AE (treatment-emergent AEs) ([3]; Total (n = 32)): 4
Grade 3 or 4 laboratory abnormalities ([3]; single dose 25-500 mg, fasted): No Grade 3 or 4 abnormalities were reported
SAEs and premature discontinuation for an AE ([3]; single dose 25-500 mg, fasted): No volunteers experienced an SAE or prematurely discontinued the study for an AE
severity of treatment emergent adverse events (TEAEs) ([3]; single dose 25-500 mg, fasted): All TEAEs were mild
tolerability ([3]; single dose 25-500 mg, fasted): well tolerated
